Experimental data reported in patent publication US20160339008A1, “METHODS OF TREATING OR PREVENTING VASCULAR DISEASES OF THE RETINA” (Children's Medical Center Corporation, priority 2013, published 2016).

Key:
[1] = system: aortic rings (macrovascular sprouting); test: Aortic ring sprouting assay (ex vivo aortic ring explants); assay type: cell-based, mouse
Protocol: Tie2-CYP2C8Tg, Tie2-sEHTg, sEH−/− mice and littermate wild-type mice were anesthetized and perfused intracardiacly with warm PBS. Aortae were dissected free, cut into 1-mm-thick rings and embedded in 304, of growth factor-reduced Matrigel™ (BD Biosciences, Cat. 354230) in 24-well tissue culture plates. 5004, CSC complete medium (Cell Systems, Cat. 420-500) activated with growth factor Boost, was then added to each well and incubated at 37° C. with 5% CO2 for 48 hours before any treatment. Medium contained 5 units/mL of Penicillin/Streptomycin (GIBCO, Cat. 15142) to prevent contamination.
DHA (Cayman Chemical, Cat. 90310, 30 μM) and AA (Cayman Chemical, Cat. 90010, 30 μM) were introduced to the culture medium 48 hours after seeding of aortic ring from Tie2-CYP2C8Tg and littermate wild-type control. 17(18)-EpETE (EEQ) (Cayman Chemical, Cat. 50861, 1 μM), 19(20)-EpDPE (EDP) (Cayman Chemical, Cat. 10175, 1 μM) and 14,15-EE-8(Z)-E (EET) (Cayman Chemical, Cat. 10010486, 1 μM) were administered to the culture medium 48 hours after seeding of aortic ring from Tie2-sEHTg, sEH−/− and their wild-type littermate controls. Medium was changed every 48 hours for all groups. Phase contrast photos of individual explants were taken 168 hours after plating (120 hours after treatment) using a ZEISS Axio Oberver.Z1 microscope. The areas of macrovascular sprouting were quantified with computer software ImageJ 1.46r (National Institute of Health). A semi-automated macro plugin for quantification of vessel sprouts is available from the authors.

[2] = system: human retinal microvascular endothelial cells (HRMEC); test: HRMEC migration; assay type: cell-based; details: for rescue of the inhibition of HRMEC migration by FA: with FA
[3] = system: neovascularization (NV) in oxygen-induced retinopathy; test: Oxygen-induced retinopathy (OIR) mouse model, quantification of retinal neovascularization; assay type: in vivo; details: for magnitude of the extent of reduction in NV, Cyp2C8 Tg mice compared to WT mice: 10 mg/kg/day GV, mice fed ω3 (n3) or ω6 (n6)
Protocol: Mouse model of OIR is described^13. C57BL/6J mice were analyzed by immunohistochemistry, real-time PCR, western blot, blood smear and LC/MS/MS oxylipid analysis. Mothers of Cyp and sEH mutant mice were fed ω3PUFA or ω6PUFA-enriched diets in OIR followed by analysis of retina, plasma and aortic ring sprouting.
The mouse model of oxygen-induced retinopathy has been previously described (Smith et al. Invest Ophthalmol Vis Sci 35: 101-111). To induce vessel loss, mice were exposed to 75% oxygen from postnatal day 7 (P7) to P12. The central retinal vessel obliteration induced by hyperoxic exposure will trigger an excessive angiogenic response that causes neovascularization. Mice were given lethal doses of Avertin (Sigma) intraperitoneally at P17 when the neovascular response is greatest.
For dietary experiments, polyunsaturated fatty acids (PUFAs), arachidonic acid (AA) and docosahexaenoic acid (DHA) supplements under the trade names ROPUFA, ARASCO and DHASCO, respectively, were obtained from DSM Nutritional Products (dsmnutritionalproducts.com) and were integrated into the rodent feed at Research Diets Incorporated (researchdiets.com/). […] Upon delivery, dams were fed a defined rodent diet with 10% (w/w) safflower oil containing either 2% ω-6 PUFAs (AA) and no ω-3 PUFAs (DHA and EPA), or 2% ω-3 PUFAs and no ω-6 PUFAs.
OIR eyes were enucleated and fixed in 4% paraformaldehyde for 1 hour at 4° C. Retinas were dissected and stained overnight at 23° C. with Alexa Fluor 594 fluoresceinated Griffonia Bandereiraea Simplicifolia Isolectin B4 (Molecular Probes, Cat. 121413, 1:100 dilution) in 1 mM CaCl2 in PBS. Following 2 hours of washes, retinas were whole-mounted onto Superfrost/Plus microscope slides (Fisher, Cat. 12-550-15) with the photoreceptor side up and embedded in SlowFade Antifade reagent (Invitrogen, Cat. S2828). For quantification of retinal neovascularization, 20 images of each whole-mounted retina were obtained at 5× magnifications on a Zeiss AxioObserver.Z1 microscope and merged to form one image with AxioVision 4.6.3.0 software. Vaso-obliteration was quantified using Adobe Photoshop and neovascularization was analysed with the SWIFT_NV method on ImageJ 1.46r (NIH) software, as described previously (Stahl et al. Angiogenesis 12: 297-301).

[4] = system: human retinal microvascular endothelial cells (HRMEC); test: HRMEC tubule formation; assay type: cell-based

Structure (SMILES): CCC1OC1C/C=C\C/C=C\C/C=C\C/C=C\CCCC(=O)O (stereo not shown) [17,18-EEQ, 17(18)-EpETE]
- aortic ring sprouting compared between WT, Tie2-sEH-Tg and sEH−/− mice ([1]; 1 μM): no difference
- rescue of the inhibition of HRMEC migration by FA [2]: partially rescuing

Structure (SMILES): CC(C)(O)c1ccccc1CC[C@@H](SCC1(CC(=O)O)CC1)c1cccc(/C=C/c2ccc3ccc(Cl)cc3n2)c1 [montelukast]
- magnitude of the extent of reduction in NV, Cyp2C8 Tg mice compared to WT mice [3]: enhanced in mice that overexpressed CYP2C8
- neovascularization ([3]; JAX (WT) mice, normal feed, dose not given): reduced in a statistically significant manner
- HRMEC tubule formation [4]: clear dose-response curves
- HRMEC migration [2]: inhibited

Structure (SMILES): CC(C)OC(=O)C(C)(C)Oc1ccc(C(=O)c2ccc(Cl)cc2)cc1 [fenofibrate]
- magnitude of the extent of reduction in NV, Cyp2C8 Tg mice compared to WT mice [3]: enhanced in mice that overexpressed CYP2C8
- neovascularization ([3]; Cyp2C8 overexpressing transgenic (Tg) mice, ω3 and ω6 LCPUFA feed, low dose): decreased neovascularization
- neovascularization (NV) ([3]; JAX (WT) mice, normal feed, high dose 100 mg/kg/day GV): significant reduction in neovascularization
- neovascularization (NV) ([3]; JAX (WT) mice, normal feed, low dose 10 mg/kg/day GV): significant reduction in neovascularization
- neovascularization (NV) ([3]; PPARα knockout mice, normal feed, high dose 100 mg/kg/day GV): significant reduction in neovascularization
- neovascularization (NV) ([3]; PPARα knockout mice, normal feed, low dose 10 mg/kg/day GV): significant reduction in neovascularization
- neovascularization ([3]; WT mice, ω3 and ω6 LCPUFA feed, low dose): decreased neovascularization
- HRMEC tubule formation [4]: inhibit HRMEC tubule formation

Structure (SMILES): CCC(=O)NC[C@H](Cc1ccc(OCCc2nc(-c3ccccc3)oc2C)cc1)N/C(C)=C\C(=O)c1ccc(C(F)(F)F)cc1 [GW6471]
- impact upon the effect of FA on aortic ring sprouting ([1]; rings from WT and Cyp2C8 Tg mice, with FA): no impact
- impact upon the effect of fenofibrate on HRMEC tubule formation ([4]; with fenofibrate): no impact
- impact upon the effect of fenofibrate on HRMEC migration ([2]; with FA/fenofibrate): no impact

Structure (SMILES): CCCCCC1OC1C/C=C\C/C=C\C/C=C\CCCC(=O)O (stereo not shown) [14,15-EET, 14,15-EE-8(Z)-E]
- aortic ring sprouting compared between WT, Tie2-sEH-Tg and sEH−/− mice ([1]; 1 μM): similar

Structure (SMILES): CCC1OC1C/C=C\C/C=C\C/C=C\C/C=C\C/C=C\CCC(=O)O (stereo not shown) [19,20-EDP, 19(20)-EpDPE]
- less sprouting, treated Tie2-sEH-Tg aortic ring versus WT ([1]; 1 μM): 50%
- rescue of FA inhibition of aortic ring sprouting ([1]; rings from WT & Cyp2C8 Tg mice, with FA): partially rescued
- rescue of the inhibition of HRMEC tubule formation by FA ([4]; with FA): partially rescued
- rescue of the inhibition of HRMEC migration by FA [2]: partially rescuing

Structure (SMILES): CCCCC/C=C\C/C=C\C/C=C\C/C=C\CCCC(=O)O [AA, arachidonic acid]
- potentiation of aortic sprouting, AA vs. DHA ([1]; 30 μM, Tie2-CYP2C8-Tg rings): abolished
- aortic sprouting, AA vs. DHA ([1]; 30 μM, WT rings): potentiated aortic sprouting

Structure (SMILES): CC/C=C\C/C=C\C/C=C\C/C=C\C/C=C\C/C=C\CCC(=O)O [DHA, docosahexaenoic acid]
- aortic sprouting, Tie2-CYP2C8-Tg versus WT ([1]; DHA treatment 30 μM): increased sprouting
